From US8962322B2, “Enhancers of induced pluripotent stem cell reprogramming” (City of Hope, priority 2012, dated 2015)

test system: human Nanog promoter; assay: Nanog-luc luciferase reporter assay (stably transfected CV1 cells); format: cell-based; conditions: Chlorocebus aethiops, CV-1; compound at 1 μM, Nanog-luc cells, triplicates
Experimental: Oct4, Sox2, and Nanog form a positive regulatory loop to regulate the expression of each other, and Nanog is considered a downstream target gene of Oct4 and Sox2 (37). Therefore, activation of Nanog promoter was used as a validation assay for the identified compounds. Specifically, the Oct4 promoter-activating compounds were tested to ascertain whether they activate a human
Nanog promoter-driven luciferase reporter gene using in triplicate luciferase reporter assays.
(§1) Then the promoter sequences were cloned into pGL4.4-luc-Hyg vector (Promega) to get Oct4-luc or Nanog-luc construct and the fidelity of the Oct4 and Nanog promoter DNA sequences was confirmed by bi-directional sequencing. CV 1 cells were transfected with the Oct4-luc or Nanog-luc constructs and the stably-transfected cells were selected by hygromycine resistance.
(§2) Luciferase Reporter Assays: The Oct4-luc or Nanog-luc cells were treated with compound OAC 1 or its structural analogs at 1 μM concentration or at indicated concentrations in triplicates. Other compounds used include 2 μM BIO, 2 μM BIX, 2 μM
(§3) AzaC, 25 μg/ml Vc, 10 nM Am580, 5 μM tranylcypromine, and 0.5 mM VPA. Luciferase reporter assays were performed as described (51) 24 hr after compound treatment or at indicated time points. For Topflash reporter assays, 0.2 μg β-catenin-responsive Topflash reporter gene plasmid was introduced into CV1 cells using trasfection (Bio-Rad). Compounds were added 6 hr after transfection. Luciferase activity was measured 48 hr after compound treatment using the Glo Luciferase Assay System (Promega).

Compound	fold induction at 1 µM
O=C(Nc1ccc2[nH]ccc2c1)c1ccccc1 [OAC2, N-(1H-indol-5-yl)benzamide]	3.9
CC(C)(C)OC(=O)NCc1ccc(C(=O)Nc2ccc3[nH]ncc3c2)cc1 [Compound C40]	0.96
O=C(Nc1ccc2[nH]ncc2c1)c1cc(F)c(F)cc1Cl [Compound C35]	1.24
O=C(Nc1ccc2[nH]ccc2c1)c1ccc(F)cc1 [OAC3, 4-fluoro-N-(1H-indol-5-yl)benzamide]	3.5

same assay, conditions: compound at 1 μM, Nanog-luc cells, triplicates

Nanog-luc fold Induction [fold]	Compound
1.9	COc1cccc(C(=O)Nc2ccc3[nH]ncc3c2)c1 [OAC15]
4.5	O=C(Nc1ccc2[nH]ncc2c1)c1ccc(Br)cc1 [OAC18]
4.4	CCOc1ccc(C(=O)Nc2ccc3[nH]ncc3c2)cc1 [OAC9]
4.9	COc1ccc(C(=O)Nc2ccc3[nH]ccc3c2)cc1 [OAC4]
3.9	CC(C)c1ccc(C(=O)Nc2ccc3[nH]ncc3c2)cc1 [OAC11]
2.9	Cc1ccc(C(=O)Nc2ccc3[nH]ncc3c2)cc1C [OAC13]
4.4	CCc1ccc(C(=O)Nc2ccc3[nH]ncc3c2)cc1 [OAC10]
2.0	O=C(Nc1ccc2[nH]ncc2c1)c1ccc(F)cc1 [OAC7]

Further lines, the molecule ahead of its results:

Compound	Nanog-luc fold Induction [fold]
CN1CCC(c2c[nH]c3ccc(NC(=O)c4ccc(F)cc4)cc23)CC1 [Compound C16]	1.1
COc1ccc(C(=O)Nc2ccc3[nH]ncc3c2)cc1OC [Compound C29]	1.1
O=C(Nc1ccc2[nH]ncc2c1)c1ccccc1F [Compound C22]	1.6
Cc1ccc(C(=O)Nc2ccc3[nH]cc(C#N)c3c2)cc1 [Compound C17]	1.1

test system: MEFs; assay: not given; conditions: OSKM, seeding 5 × 10^4, day 25, reference (4) Lyssiotis 2009; cited from earlier work

Compound	Colony numbers	Reprogramming efficiency [%]
O=C1Cc2c([nH]c3ccc(Br)cc23)-c2ccccc2N1 [Kenpaullone, kenpaullone]	100	0.2

same assay, conditions: OSKM, seeding 7,500, day 30, reference (5) Ichida 2009; cited from earlier work

Compound	Colony numbers	Reprogramming efficiency [%]
Cc1cccc(-c2[nH]ncc2-c2ccc3ncccc3n2)n1 [RepSox2]	7.5	0.1

test system: mouse embryonic fibroblasts (MEFs); assay: iPSC derivation from 4F (OSKM)-transduced MEFs in mouse ESC media; format: cell-based; conditions: 4F+OAC
Experimental: The generation of iPSCs is a gradual process with relatively low efficiency. Since Oct4 is central to the reprogramming process (35, 36, 38), it was hypothesized that compounds that activate Oct4 transcription may facilitate iPSC generation by enhancing reprogramming efficiency. Reprogramming of mouse embryonic fibroblasts (MEFs) was performed with the 4F reprogramming quartet Oct4, Sox2, Klf4, and c-Myc, along with solvent control, OAC1 or its structural analogs OAC2 and OAC3. The same number of starting MEFs and the same viral stocks were used for each treatment. Two days after viral transduction, the 4F-transduced cells were seeded onto feeder cells in mouse ESC culture media, and this day was designated as day 0 (FIG. 2D). Compound treatment started on day 0 and lasted for 7 days. By counting the number of clones with ESC-like morphology at day 18, both OAC1 and its analogs OAC2 and OAC3 enhanced the 4F-induced reprogramming efficiency considerably. The number of colonies with ESC-like morphology (FIG. 2E) increased 2-fold or more in 4F plus OAC (4F+OAC) treatment, compared to the 4F treatment alone (FIG. 2F, Table 3).
iPSC Derivation in Mouse ESC Media: OG2/R26MEFs were seeded onto […] at the density of 4×10^4 cells per well in DMEM medium with 10% FBS, 0.1 mM non-essential amino acids (NEAA), and 0.1 mM L-glutamine, 24 hr before transduction. Freshly concentrated viruses of the four factors, Oct4, Sox2, c-Myc, and Klf4, were added to the cells. Two days after viral infection, the viral-transduced OG2/R26MEFs were split into new 6-well plates with irradiated MEF feeder cells and cultured in mouse ESC culture medium containing 15% ESC qualified FBS, 2 mM L-glutamine, 0.1 mM 2-mercaptoethanol, 0.1 mM NEAA, 1 mM sodium pyruvate and 1000 U/ml of leukemia inhibitory factor (LIF), and this day was defined as day 0. 1 μM of each compound (OAC1, OAC2, and OAC3) was added to the 4F-transduced cells at day 0 and treatment was continued for 1 week. When iPSC colonies emerged, these colonies were picked for expansion on irradiated MEF feeders in mouse ESC medium.

Compound	advance of the appearance of putative iPSC colonies compared to 4F only reprogramming
O=C(Nc1ccc2[nH]ccc2c1)c1ccccc1 [OAC2, N-(1H-indol-5-yl)benzamide]	about three to four

test system: human fibroblast cells (IMR90); assay: human iPSC derivation from 4F (OSKM)-transduced IMR90 fibroblasts; format: cell-based; conditions: IMR90, 4F+compound, day 0 = transduction; 4F+vehicle day 11
Experimental: It has been shown that compound OAC1 (Oct4-activating compound I) and two of its structural analogs OAC2 and OAC3 can enhance reprogramming efficiency, when added to the reprogramming mixture along with the four transcription factors, Oct4, Sox2, Klf4, and c-Myc (OSKM), in mouse system. The OAC compounds were tested to determine if they can enhance reprogramming efficiency in human system. The reprogramming process was performed as described in the diagram (FIG. 14a). Briefly, human fibroblast cells (IMR90) were induced to reprogram into induced pluripotent stem cells (iPSCs) using the four reprogramming factors (4F), OSKM. The day when the cells were transduced with the four reprogramming factors was referred to as day 0. Cells were cultured in IMR90 media for six days. On day 6, the transduced cells were split and seeded onto feeders. On day 7, IMR90 culture media was changed to hESC culture media and started compound treatment. Compound treatment was lasted for one week. Cells were monitored for the appearance of human embryonic stem cell (ESC)-like colonies. On day 9, several small human ESC-like colonies appeared in both 4F+OAC1 and 4F+OAC2-treated cells, however, human ESC-like colonies were not observed in 4F+vehicle (4F)-treated cells until day 11. To determine the effect of OAC on the efficiency of human iPSC derivation, the number of human ESC-like colonies were counted under all three conditions at day 18. Both OAC 1 and its structural analog OAC2 increased the number of human ESC-like colonies more than two-fold (FIG. 14b, c). The human ESC-like colonies were picked from either 4F or 4F+OAC-treated cells and expanded under human ESC culture conditions. These cells were able to expand and stably produce human iPSC clones with characteristic human ESC-like morphology (FIG. 14d).

Compound	day at which human ESC-like colonies appeared [days]
O=C(Nc1ccc2[nH]ccc2c1)c1ccccc1 [OAC2, N-(1H-indol-5-yl)benzamide]	9

same assay, conditions: IMR90, day 18, versus 4F

Compound	increase in the number of human ESC-like colonies
O=C(Nc1ccc2[nH]ccc2c1)c1ccccc1 [OAC2, N-(1H-indol-5-yl)benzamide]	more than two

test system: human Oct4 promoter; assay: Oct4-luc luciferase reporter assay (stably transfected CV1 cells); format: cell-based; conditions: Homo sapiens, CV-1, 24 h; compound at 1 μM, Oct4-luc cells, triplicates; read-out: Oct4-luc Activity
Description: A high-throughput screening scheme was designed to identify Oct4 promoter-activating compounds using a luciferase reporter under the control of the human Oct4 promoter (Oct4-luc). […] A stable cell line (Oct4-luc) that expresses luciferase reporter driven by the exogenous Oct4 promoter was established using hygromycin-resistance as a selection marker. These Oct4-luc cells were used for high-throughput screening of a chemical library of 80,000 compounds. The luciferase reporter activity was measured 24 hr after compound treatment. Solvent treatment was included as a negative control.
as §1
Compound Screening: The Oct4-luc cells were seeded at 1.75×10^4 cells per well density into 96-well plates. Compounds were added to cells one day after cell seeding at the concentration of 10 μM for 24 hr in the High-Throughput Screening core facility at City of Hope. Compounds that induced luciferase activity 3-fold or more were selected for further validation in both Oct4-luc and Nanog-luc cells.
as §2, §3

Compound	fold induction at 1 µM
O=C(Nc1ccc2[nH]ccc2c1)c1ccccc1 [OAC2, N-(1H-indol-5-yl)benzamide]	≥ 1.8
CC(C)(C)OC(=O)NCc1ccc(C(=O)Nc2ccc3[nH]ncc3c2)cc1 [Compound C40]	< 1.8
O=C(Nc1ccc2[nH]ncc2c1)c1cc(F)c(F)cc1Cl [Compound C35]	< 1.8
O=C(Nc1ccc2[nH]ccc2c1)c1ccc(F)cc1 [OAC3, 4-fluoro-N-(1H-indol-5-yl)benzamide]	≥ 1.8

same assay, conditions: compound at 1 μM, Oct4-luc cells, triplicates

Oct4-luc fold Induction [fold]	Compound	Oct4-luc Activity
1.9	COc1cccc(C(=O)Nc2ccc3[nH]ncc3c2)c1 [OAC15]	++ (Compounds that induce Oct4-luc 1.8-fold or more were classified as “++”)
4.49	O=C(Nc1ccc2[nH]ncc2c1)c1ccc(Br)cc1 [OAC18]	++ (Compounds that induce Oct4-luc 1.8-fold or more were classified as “++”)
4.4	CCOc1ccc(C(=O)Nc2ccc3[nH]ncc3c2)cc1 [OAC9]	++ (Compounds that induce Oct4-luc 1.8-fold or more were classified as “++”)
4.8	COc1ccc(C(=O)Nc2ccc3[nH]ccc3c2)cc1 [OAC4]	++ (Compounds that induce Oct4-luc 1.8-fold or more were classified as “++”)
3.8	CC(C)c1ccc(C(=O)Nc2ccc3[nH]ncc3c2)cc1 [OAC11]	++ (Compounds that induce Oct4-luc 1.8-fold or more were classified as “++”)
2.8	Cc1ccc(C(=O)Nc2ccc3[nH]ncc3c2)cc1C [OAC13]	++ (Compounds that induce Oct4-luc 1.8-fold or more were classified as “++”)
4.5	CCc1ccc(C(=O)Nc2ccc3[nH]ncc3c2)cc1 [OAC10]	++ (Compounds that induce Oct4-luc 1.8-fold or more were classified as “++”)
2.2	O=C(Nc1ccc2[nH]ncc2c1)c1ccc(F)cc1 [OAC7]	++ (Compounds that induce Oct4-luc 1.8-fold or more were classified as “++”)

Second part, the molecule before the results:

Compound	Oct4-luc fold Induction [fold]	Oct4-luc Activity
CN1CCC(c2c[nH]c3ccc(NC(=O)c4ccc(F)cc4)cc23)CC1 [Compound C16]	1.0	+ (molecules that induce Oct4-luc less than 1.8-fold were indicated as “+”)
COc1ccc(C(=O)Nc2ccc3[nH]ncc3c2)cc1OC [Compound C29]	1.1	+ (molecules that induce Oct4-luc less than 1.8-fold were indicated as “+”)
O=C(Nc1ccc2[nH]ncc2c1)c1ccccc1F [Compound C22]	1.5	+ (molecules that induce Oct4-luc less than 1.8-fold were indicated as “+”)
Cc1ccc(C(=O)Nc2ccc3[nH]cc(C#N)c3c2)cc1 [Compound C17]	1.1	+ (molecules that induce Oct4-luc less than 1.8-fold were indicated as “+”)

same assay, conditions: compound at 1 μM, Oct4-luc cells, triplicates; read-out: Oct4-luc fold Induction

Compound	fold induction at 1 µM
O=C(Nc1ccc2[nH]ccc2c1)c1ccccc1 [OAC2, N-(1H-indol-5-yl)benzamide]	3.6
CC(C)(C)OC(=O)NCc1ccc(C(=O)Nc2ccc3[nH]ncc3c2)cc1 [Compound C40]	0.97
O=C(Nc1ccc2[nH]ncc2c1)c1cc(F)c(F)cc1Cl [Compound C35]	1.15
O=C(Nc1ccc2[nH]ccc2c1)c1ccc(F)cc1 [OAC3, 4-fluoro-N-(1H-indol-5-yl)benzamide]	3.7
